Experimental findings from patent EP0056458B1, “Nitrosourea derivatives, a process for preparing same and therapeutic compositions” (Tanabe Seiyaku Co., Ltd., priority 1981, dated 1982) are described below.

Marks after values point to notes of the source that are not given here.

Series [1] is described as follows: Preventive effect against the growth of Ehrlich ascites tumor (method A). To be noted: mouse, in vivo, ip; Maximum Tolerated Dose: maximum dose with 100% inhibition of Ehrlich ascites tumor growth without death of mice; dose column in mg/kg/day. Format: in vivo, mice. How it is done:
(§1) (A) Preventive effect against the growth of Ehrlich ascites tumor:
(§2) 10^6 tumor cells of Ehrlich ascites carcinoma were inoculated intraperitoneally into a group of five female mice (ICR mice, body weight: 19-23 g). A test compound was dissolved in a physiological saline solution. (In the case where CCNU was employed as the test compound, said compound was suspended in a physiological saline solution containing 0.1% NIKKOL HCO-60 (trademark; a surface active agent manufactured by Nikko Chemicals Co. Ltd.)) and administered intraperitoneally to the mice. The administration of the test compound was begun 24 hours after the inoculation of the tumor cells and performed once a day for 5 days. The volume of ascites in the treated mice were measured after 7 days of the experiment.

Series [2] has as its system Ehrlich ascites carcinoma. Described as above. The class given is in vivo, mice. To be noted: for Therapeutic index: M. T. D./M. E. D.; for inhibition in vivo at 0.39 mg/kg/day: dose 0.39 mg/kg/day i.p. x 5 days; for inhibition in vivo at 0.78 mg/kg/day: dose 0.78 mg/kg/day i.p. x 5 days; for inhibition in vivo at 1.56 mg/kg/day: dose 1.56 mg/kg/day i.p. x 5 days; for inhibition in vivo at 6.25 mg/kg/day: dose 6.25 mg/kg/day i.p. x 5 days; for minimal effective dose: minimum effective dose which shows 100% inhibition for the growth of the ascites tumor, dose column in mg/kg/day, read-out: MED; for Toxic: group of five mice; for inhibition in vivo at 0.097 mg/kg/day: dose 0.097 mg/kg/day i.p. x 5 days; for inhibition in vivo at 0.195 mg/kg/day: dose 0.195 mg/kg/day i.p. x 5 days; for inhibition in vivo at 3.12 mg/kg/day: dose 3.12 mg/kg/day i.p. x 5 days; for inhibition in vivo at 12.5 mg/kg/day: dose 12.5 mg/kg/day i.p. x 5 days. As for the experimental part: as §1, §2

Series [3] deals with leukemic cells of L-1210. The experiment in a line: Effect on the life span of mice implanted with leukemic cells of L-1210 (method B). Format: in vivo. As to conditions: for ILS (%): Increase in Life Span; for 60-day survivors: mice survived for 60 days/mice used. As for the experimental part:
(B) Effect on the life span of mice implanted with leukemic cells of L-1210:
10^5 leukemic cells of L-1210were inoculated intraperitoneally into a group of four male mice (BDF1 mice, body weight: 19-23 g). A test compound was dissolved in a physiological saline solution and administered intraperitoneally to the mice. The administration of the test compound was begun 24 hours after the inoculation of the leukemic cells and performed once a day for 5 days. The survival days of the treated mice were observed.

Where [4] appears, read: Mus musculus, Ehrlich, ip, 168 h, read-out: Inhibition ratio (%).
The mark [5] stands for this setting: Mus musculus, Ehrlich, ip, 168 h, dose 25 mg/kg/day i.p. x 5 days, read-out: Inhibition ratio (%).
Setting [6] is: Mus musculus, Ehrlich, ip, 168 h.
Setting [7] is: dose 50 mg/kg/day i.p. x 5 days.
Where [8] appears, read: dose 1.56 mg/kg/day i.p. x 5 days.
The mark [9] stands for this setting: dose 3.12 mg/kg/day i.p. x 5 days.
Where [10] appears, read: dose 6.25 mg/kg/day i.p. x 5 days.
Setting [11] is: dose 12.5 mg/kg/day i.p. x 5 days.
Setting [12] is: T (treated mice), dose 3.12 mg/kg/day i.p. x 5 days.
Setting [13] is: T (treated mice), dose 6.25 mg/kg/day i.p. x 5 days.
[14] abbreviates: T (treated mice), dose 12.5 mg/kg/day i.p. x 5 days.
Setting [15] is: dose 25 mg/kg/day i.p. x 5 days.

As usually defined, the MTD is the largest dose that counted as tolerated. Lower therefore signals poorer tolerability. `C#CCN(C(=O)N(CCCl)N=O)[C@@H]1[C@@H](O)[C@@H](OC)O[C@H](CO)[C@H]1O` [Compound 5, 1 - (2 - chloroethyl) - 1 - nitroso - 3 - propargyl - 3 - (methyl 3 - deoxy - a - D - glucopyranosid - 3 - yl)urea] yielded an MTD at 168 h in series [1] of 25 mg/kg/day. Also, in series [2], the Therapeutic index stood at 32. In addition, in series [2] (setting [4]), the inhibition in vivo at 0.39 mg/kg/day turned out to be 35.1%, the inhibition in vivo at 0.78 mg/kg/day is 100%, the inhibition in vivo at 1.56 mg/kg/day was 100% and the inhibition in vivo at 6.25 mg/kg/day came to 100%. Moreover, the inhibition in vivo at 25 mg/kg/day in series [2] (setting [5]) was 100%. For the same compound, in series [2] (setting [6]), the minimal effective dose amounted to 0.78 mg/kg/day. For the same compound, the “Toxic” value in series [2] (setting [7]) is on record as “Toxic (1/5)*”.

`CO[C@H]1O[C@H](CO)[C@@H](O)[C@H](N(C)C(=O)N(CCCl)N=O)[C@H]1O` [Compound 3, 1 - (2 - chloroethyl) - 1 - nitroso - 3 - methyl - 3 - (methyl 3 - deoxy - a - D - glucopyranosid - 3 - yl)urea] had an MTD at 168 h in series [1] of 25 mg/kg/day. This compound gave a Therapeutic index in series [2] of 64. In series [2] (setting [4]), the inhibition in vivo at 0.097 mg/kg/day was 2.7%. In addition, the inhibition in vivo at 0.195 mg/kg/day in series [2] (setting [4]) worked out at 81.1%. Also, in series [2] (setting [4]), the inhibition in vivo at 0.39 mg/kg/day was 100%. Also, the inhibition in vivo at 1.56 mg/kg/day in series [2] (setting [4]) stood at 100%. For the same compound, the inhibition in vivo at 6.25 mg/kg/day in series [2] (setting [4]) turned out to be 100%. In series [2] (setting [5]), the inhibition in vivo at 25 mg/kg/day is 100%. Moreover, the minimal effective dose in series [2] (setting [6]) turned out to be 0.39 mg/kg/day. For the same compound, in series [2] (setting [7]), the “Toxic” value is given as “Toxic (1/5)*”. Further, the “ILS (%)” value in series [3] (setting [8]) is recorded as 70.2%; in series [3] (setting [9]), more than 361.9%; in series [3] (setting [10]), more than 614.3%; in series [3] (setting [11]) it was more than 614.3%. Further, the “Mean survival days (T/C)” value is on record as 14.3/8.4 days in series [3] (T (treated mice), dose 1.56 mg/kg/day i.p. x 5 days); >38.8/8.4 days in series [3] (setting [12]); >60.0/8.4 days in series [3] (setting [13]); >60.0/8.4 days in series [3] (setting [14]). In addition, the “increase in the average life span” value in series [3] (daily dose of 0.26 mg/kg intraperitoneally for five consecutive days) is given as “about 30%”. Also, the 60-day survivors in series [3] (setting [8]) is on record as 0/4; in series [3] (setting [9]) it was 2/4; in series [3] (setting [10]), 4/4; in series [3] (setting [11]), 4/4.

The compound `CO[C@H]1O[C@H](CO)[C@@H](O)[C@H](N(CC(C)C)C(=O)N(CCCl)N=O)[C@H]1O` [Compound 2, 1 - (2 - chloroethyl) - 1 - nitroso - 3 - isobutyl - 3 - (methyl 3 - deoxy - a - D - glucopyranosid - 3 - yl)urea] registered a maximum tolerated dose (MTD) at 168 h in series [1] of 25 mg/kg/day. This compound also yielded a Therapeutic index in series [2] of 128. Also, in series [2] (setting [4]), the inhibition in vivo at 0.097 mg/kg/day was determined as 8.1%, the inhibition in vivo at 0.195 mg/kg/day worked out at 100%, the inhibition in vivo at 0.39 mg/kg/day is 100% and the inhibition in vivo at 1.56 mg/kg/day stood at 100%. The inhibition in vivo at 6.25 mg/kg/day in series [2] (setting [4]) was determined as 100%. Moreover, the inhibition in vivo at 25 mg/kg/day in series [2] (setting [5]) was found to be 100%. Also, the minimal effective dose in series [2] (setting [6]) turned out to be 0.195 mg/kg/day. Also, the “Toxic” value in series [2] (setting [7]) is “Toxic (1/5)*”. Besides, in series [3] (setting [9]), the “ILS (%)” value was determined as 57.0% and the 60-day survivors is 0/4. Moreover, in series [3] (setting [10]), the “ILS (%)” value was more than 597.7% and the 60-day survivors is listed as 4/4. Also, in series [3] (setting [11]), the “ILS (%)” value is listed as more than 597.7% and the 60-day survivors is 4/4. Moreover, the “Mean survival days (T/C)” value in series [3] (setting [12]) is recorded as 13.5/8.6 days. Further, in series [3] (setting [13]), the “Mean survival days (T/C)” value is given as >60.0/8.6 days. Moreover, in series [3] (setting [14]), the “Mean survival days (T/C)” value is >60.0/8.6 days.

In turn, `COCCN(C(=O)N(CCCl)N=O)[C@@H]1[C@@H](O)[C@@H](OC)O[C@H](CO)[C@H]1O` [Compound 6, 1 - (2 - chloroethyl) - 1 - nitroso - 3 - (2 - methoxyethyl) - 3 - (methyl 3 - deoxy - a - D - glucopyranosid - 3 - yl)urea] had an MTD at 168 h in series [1] of 25 mg/kg/day. For the same compound, the Therapeutic index in series [2] is on record as 128. Besides, in series [2] (setting [4]), the inhibition in vivo at 0.097 mg/kg/day worked out at 0%, the inhibition in vivo at 0.195 mg/kg/day came to 100%, the inhibition in vivo at 0.39 mg/kg/day is 100% and the inhibition in vivo at 1.56 mg/kg/day stood at 100%. Besides, in series [2] (setting [4]), the inhibition in vivo at 6.25 mg/kg/day came out at 100%. Also, in series [2] (setting [5]), the inhibition in vivo at 25 mg/kg/day came out at 100%. Moreover, the minimal effective dose in series [2] (setting [6]) stood at 0.195 mg/kg/day. In series [2] (setting [7]), the “Toxic” value is recorded as “Toxic (2/5)*”.

As for `C=CCN(C(=O)N(CCCl)N=O)[C@@H]1[C@@H](O)[C@@H](OC)O[C@H](CO)[C@H]1O` [Compound 4, 1 - (2 - chloroethyl) -1 - nitroso - 3 - allyl - 3 - (methyl 3 - deoxy - α - D - glucopyranosid - 3 - yl)urea], in series [1], the MTD at 168 h came out at 25 mg/kg/day. The same compound showed a Therapeutic index in series [2] of 128. For the same compound, in series [2] (setting [4]), the inhibition in vivo at 0.097 mg/kg/day is 29.7%, the inhibition in vivo at 0.195 mg/kg/day was found to be 100%, the inhibition in vivo at 0.39 mg/kg/day came to 100% and the inhibition in vivo at 1.56 mg/kg/day stood at 100%. The inhibition in vivo at 6.25 mg/kg/day in series [2] (setting [4]) came out at 100%. In addition, in series [2] (setting [5]), the inhibition in vivo at 25 mg/kg/day worked out at 100%. Moreover, the minimal effective dose in series [2] (setting [6]) amounted to 0.195 mg/kg/day. The “Toxic” value in series [2] (setting [7]) is “Toxic (3/5)*”. For the same compound, in series [3] (setting [10]), the “ILS (%)” value is listed as 80.2% and the 60-day survivors is 0/4. In addition, in series [3] (setting [11]), the “ILS (%)” value is on record as more than 597.7% and the 60-day survivors is on record as 4/4. For the same compound, in series [3] (setting [15]), the “ILS (%)” value was more than 496.5% and the 60-day survivors is reported as 3/4. The “Mean survival days (T/C)” value in series [3] (setting [13]) is reported as 15.5/8.6 days. In addition, the “Mean survival days (T/C)” value in series [3] (setting [14]) was >60.0/8.6 days. For the same compound, in series [3] (T (treated mice; figure after the slash is untreated control C), dose 25 mg/kg/day i.p. x 5 days), the “Mean survival days (T/C)” value is >51.3/8.6 days.

Compound `O=NN(CCCl)C(=O)NC1CCCCC1` [CCNU, 1-(2-chloroethyl)-1-nitroso-3-cyclohexylurea, reference compound] showed a Therapeutic index in series [2] of 4. In series [2] (setting [4]), the inhibition in vivo at 3.12 mg/kg/day turned out to be 21.1%, the inhibition in vivo at 6.25 mg/kg/day was 33.3% and the inhibition in vivo at 12.5 mg/kg/day amounted to 100%. The inhibition in vivo at 50 mg/kg/day in series [2] (Mus musculus, Ehrlich, ip, 168 h, dose 50 mg/kg/day i.p. x 5 days, read-out: Inhibition ratio (%)) worked out at 100%. Besides, the minimal effective dose in series [2] (setting [6]) amounted to 12.5 mg/kg/day. The “Toxic” value in series [2] (dose 100 mg/kg/day i.p. x 5 days) was “Toxic (5/5)*”.

`O=NN(CCCl)C(=O)N[C@@H]1O[C@H](CO)[C@@H](O)[C@H](O)[C@H]1O` [GANU, 1-(2-chloroethyl)-1-nitroso-3-β-(D-glucopyranosyl)urea, reference compound]: in series [1], the maximal tolerated dose (MTD) at 168 h is 12.5 mg/kg/day. In series [2], this compound yielded a Therapeutic index of 32. Further, the inhibition in vivo at 0.09 mg/kg/day in series [2] (Mus musculus, Ehrlich, ip, 168 h, dose 0.09 mg/kg/day i.p. x 5 days, read-out: Inhibition ratio (%)) was 4.2%. For the same compound, the inhibition in vivo at 0.19 mg/kg/day in series [2] (Mus musculus, Ehrlich, ip, 168 h, dose 0.19 mg/kg/day i.p. x 5 days, read-out: Inhibition ratio (%)) came out at 79.2%. Moreover, in series [2] (setting [4]), the inhibition in vivo at 0.39 mg/kg/day worked out at 100%, the inhibition in vivo at 0.78 mg/kg/day was 100%, the inhibition in vivo at 3.12 mg/kg/day stood at 100% and the inhibition in vivo at 12.5 mg/kg/day amounted to 100%. In series [2] (setting [6]), the minimal effective dose worked out at 0.39 mg/kg/day. The “Toxic” value in series [2] (setting [15]) is reported as “Toxic (5/5)*”.
